Source: ChEMBL document CHEMBL1133722 (J Med Chem, 2000)

Columns and labels:
Assay type in all cases: cell-based, Cercopithecidae
[1] = biological target: Kappa-type opioid receptor (Homo sapiens, UniProt P41145, E297A); assay: Binding affinity using [3H]diprenorphine as the radioligand against E297A mutant Opioid receptor kappa 1 in COS-7 cells
[2] = biological target: Kappa-type opioid receptor (Homo sapiens, UniProt P41145, E297K); assay: Binding affinity using [3H]diprenorphine as the radioligand against E297K mutant Opioid receptor kappa 1 in COS-7 cells
[3] = biological target: T1, Kappa-type opioid receptor (Homo sapiens, UniProt P41145); assay: Binding affinity using [3H]diprenorphine as the radioligand against wild-type Opioid receptor kappa 1 in COS-7 cells
[4] = biological target: T2, Mu-type opioid receptor (Homo sapiens, UniProt P35372); assay: Binding affinity using [3H]diprenorphine as the radioligand against K303E Opioid receptor mu 1 in COS-7 cells
[5] = biological target: T2, Mu-type opioid receptor; assay: Binding affinity using [3H]diprenorphine as the radioligand against wild-type Opioid receptor mu 1 in COS-7 cells
[6] = biological target: T1, Kappa-type opioid receptor; assay: Binding affinity using [3H]diprenorphine as the radioligand against wild-type Opioid receptor kappa 1r in COS-7 cells

T1 sequence (P41145 whole entry): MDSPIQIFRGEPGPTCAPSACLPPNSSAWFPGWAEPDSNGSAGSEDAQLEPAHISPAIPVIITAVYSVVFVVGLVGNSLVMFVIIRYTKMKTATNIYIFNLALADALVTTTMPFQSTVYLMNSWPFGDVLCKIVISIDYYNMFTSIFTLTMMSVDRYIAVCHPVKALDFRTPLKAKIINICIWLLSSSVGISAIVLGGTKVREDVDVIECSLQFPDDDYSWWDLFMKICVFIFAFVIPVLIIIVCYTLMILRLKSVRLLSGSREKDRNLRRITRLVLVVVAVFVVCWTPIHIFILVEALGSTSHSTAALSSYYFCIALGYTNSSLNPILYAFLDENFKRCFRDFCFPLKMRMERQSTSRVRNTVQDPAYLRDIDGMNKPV
Sequence of Kappa-type opioid receptor (Homo sapiens, UniProt P41145, E297K) (P41145 whole entry E297K): as the sequence (P41145 whole entry) above, with E297K counted along it
Sequence of Kappa-type opioid receptor (Homo sapiens, UniProt P41145, E297A) (P41145 whole entry E297A): as the sequence (P41145 whole entry) above, with E297A counted along it
T2 sequence (P35372 whole entry): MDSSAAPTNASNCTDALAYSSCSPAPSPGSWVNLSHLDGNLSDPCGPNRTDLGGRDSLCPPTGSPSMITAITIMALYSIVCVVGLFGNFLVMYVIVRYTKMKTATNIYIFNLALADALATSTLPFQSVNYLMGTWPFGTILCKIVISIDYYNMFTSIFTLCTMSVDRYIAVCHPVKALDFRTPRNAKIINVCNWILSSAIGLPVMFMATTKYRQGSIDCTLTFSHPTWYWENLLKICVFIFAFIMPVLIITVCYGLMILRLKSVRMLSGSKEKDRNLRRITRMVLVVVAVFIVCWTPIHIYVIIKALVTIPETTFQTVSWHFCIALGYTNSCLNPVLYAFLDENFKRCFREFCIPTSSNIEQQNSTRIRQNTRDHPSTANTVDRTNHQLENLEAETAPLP

Row | Compound | Ki [1] | Ki [2] | Ki [3] | Ki [4] | Ki [5] | Ki [6]
1 | CN1CC[C@]23c4c5ccc(O)c4O[C@H]2c2[nH]c4c(c2C[C@@]3(O)[C@H]1C5)C[C@@]1(O)[C@H]2Cc3ccc(O)c5c3[C@@]1(CCN2C)[C@H]4O5 | > 1 µM | > 1 µM | 0.0217 µM | 0.0417 µM | > 1 µM | 
2 | CN1CC[C@]23c4c5ccc(O)c4O[C@H]2c2[nH]c4c(c2C[C@H]3[C@H]1C5)C[C@@]1(O)[C@H]2Cc3ccc(O)c5c3[C@@]1(CCN2CC1CC1)[C@H]4O5 | 0.0396 µM | 0.0399 µM | 0.00032 µM | 0.00016 µM | 0.04 µM | 
3 | COc1ccc2c3c1O[C@H]1c4[nH]c5c(c4C[C@@]4(O)[C@@H](C2)N(CC2CC2)CC[C@]314)C[C@@]1(O)[C@H]2Cc3ccc(O)c4c3[C@@]1(CCN2C)[C@H]5O4 | > 1 µM | > 1 µM | 0.0363 µM | 0.052 µM | 0.165 µM | 
4 | CC(=O)N1CC[C@]23c4c5ccc(O)c4O[C@H]2c2[nH]c4c(c2C[C@@]3(O)[C@H]1C5)C[C@@]1(O)[C@H]2Cc3ccc(O)c5c3[C@@]1(CCN2CC1CC1)[C@H]4O5 | 0.104 µM | 0.104 µM | 0.0236 µM | 0.042 µM | 0.102 µM | 
5 | N=C(N)N1CC[C@]23c4c5ccc(O)c4O[C@H]2c2[nH]c4c(c2C[C@@]3(O)[C@H]1C5)C[C@@]1(O)[C@H]2Cc3ccc(O)c5c3[C@@]1(CCN2CC1CC1)[C@H]4O5 |  | 0.189 µM |  |  |  | 0.00057 µM
6 | COc1ccc2c3c1O[C@H]1c4[nH]c5c(c4C[C@@]4(O)[C@@H](C2)N(CC2CC2)CC[C@]314)C[C@@]1(O)[C@H]2Cc3ccc(O)c4c3[C@@]1(CCN2CC1CC1)[C@H]5O4 | 0.017 µM | 0.028 µM | 0.00039 µM | 0.0027 µM | 0.276 µM | 
